# Patent US20030087830A1, “Low molecular weight components of cartilage, complexes of metals with amino acids, DI-peptides and analogs thereof; processes for preparation and therapeutic uses thereof” (priority 2001, published 2003)
# Legend:
# [1] = tested on: Endothelial cells (HUVEC, BAEC); assay: Endothelial cell proliferation; type: cell-based, human / bovine; settings: for EC50: 48 hours, copper equivalent, NA = less than 50% at 1.25 mM copper equivalent, read-out: EC proliferation (EC50 mM)
# Procedure: Endothelial and tumor cell proliferation assays were performed to determine the ability of test samples to inhibit endothelial cell proliferation (antiangiogenic activity), normal cell proliferation,and tumor cell proliferation.
# Endothelial cells (Human umbilical vein endothelial cells (HUVEC), bovine aortic endothelial cells (BAEC)), skeletal muscle cells, human dermal fibroblasts (all from Clonetics, Walkersville, Md.) were respectively maintained in EBM-2, MDEM, SKGM and FGFM-2 complete media according to manufacturer's instructions. Tumor rat glioblastoma cell line (C6) was maintained in DMEM (Sigma, Oaksville, Ontario) supplemented with 10% fetal calf serum (FCS) and antibiotics in 5% CO2. Briefly, cells seeded in 96-well sterile tissue culture dishes were treated with increasing concentrations of different test samples for a period of 48 hours at 37° C. Cell number was then evaluated by a calorimetric assay using the cell proliferation reagent tetrazolium salt and the fluorimetric assay using DNA dye (Hoescht) according to the procedure established by the manufacturer (Boehringer Mannhein). The conversion of these tetrazolium salts into formazan occurs only in metabolically active cells. The percentage of cell inhibition was determined by comparison to untreated cells.
# (§1) According to the endothelial cell proliferation assay, the relative effectiveness of two compounds is compared by reference to the EC50 thereof. The EC50 is the concentration of compound at which the number of endothelial cells is reduced by 50% as compared to control. The efficacy of the test samples in EVT is established by the percent of eggs with altered angiogenesis at a given inhibitor dose of 0.6 mg of copper equivalent (see FIG. 6 for examples). A comparison of the antiangiogenic activity of the compounds of the present invention with divalent metal salts (CuCl2, MgCl2, ZnCl2, CoCl2) and uncoupled alpha-amino acids, alpha-imino acids, dipeptides, and nitrogenated molecules comprising a carboxylic acid group, such as creatine, is provided to illustrate that the formation of the amino acid-copper complex gives rise to complexes having antiangiogenic activity.
# [2] = Affinity of the amino acid with copper; type: physicochemical
# [3] = tested on: blood vessel formation in the vitelline membrane of chick embryo; assay: Embryonic Vascularization Test (EVT); type: in vivo; settings: for EVT (% of inhibition): activity at 0.6 mg equivalent Copper; for EVT activity (in words): in vivo
# Procedure: The Embryonic Vascularization Test (EVT) was performed to determine the ability of test samples to inhibit the formation of new blood vessels (antiangiogenic activity).
# The normal development of a chick embryo involves the formation of an external vascular system located in the vitelline membrane which carries nutrients from the vitellus (yolk) to the developing embryo. When placed onto the vitelline membrane, antiangiogenic substances can inhibit the blood vessel formation that occurs in the vitelline membrane. Briefly, methylcellulose discs (an inert solid and transparent matrix) containing different test samples were placed on the external border of the vascular perimeter of the vitelline membrane, where the angiogenic process occurs. Vascularization was assessed 24 hours after disc deposition, and results were expressed as the percent of embryos in which blood vessel formation was affected. The blood vessel formation was considered affected when its growing path was either deviated, or diminished or when there was no growth observed beyond the disc as compared to the negative control. The results are expressed as 0, +, and ++ where 0 is for a lower response than 25 percent of the eggs; + is for a response between 25 and 50 percent; and ++ is for an antiangiogenic response observed in more than 50 percent of the eggs.
# as §1
# Endothelial cells [4] = assay: Endothelial cell tubule formation assay (tubulogenesis); type: cell-based; set-up: key to Tubulogenesis: 0: Numerous capillary-like tube forming pentagonal network; +: Decrease of capillary-like tubes; ++: Dramatic decrease of capillary-like tubes; +++: Absence of capillary-like tubes
# Procedure: The endothelial cell tubule formation assay is a semi-quantitative assay that was performed to determine the ability of test samples to inhibit this multi-step process, which involves cell adhesion, migration, differentiation and growth, using a commercial kit (Chemicon). Briefly, endothelial cells were seeded on solid gel of Ecmatrix™ (Chemicon), basement proteins prepared from the Engelbreth Holm-Swarm (EHS) mouse tumor in microplate in a E-99 media (Sigma) supplemented with 5% FBS and VEGF (50 ng/ml) in the presence or absence of the test sample. Cells were incubated for a period of 24 hours at 37° C. Pictures were taken on the entire tissue culture dish using a binocular microscope for further evaluation.
# Endothelial cells [5] = assay: Endothelial cell migration assay (VEGF, modified Boyden chamber); type: cell-based
# Procedure: The endothelial cell migration assay was performed to determine the ability of test samples to inhibit the chemotaxic activity of vascular endothelial growth factor (VEGF;R/D System, MN) using a modified Boyden chamber (Transwell™, Corning/Costar). Briefly, polyvinylidene difluoride filters (PVDF) were coated with Pronectin F (Biosources, CA), a constituent of basement membrane barrier. Boyden chambers were assembled by adding VEGF to the culture media in the lower chamber (chemoattractant). Endothelial cells suspended in cultured media in the presence or the absence of the test samples were added to the upper chamber. The chambers were then incubated for a period of 4.5 hours at 37° C. At the end of the incubation period, the cells from both side of the PVDF membrane were fixed with 3.7% formaldehyde. Cells from the upper surface of the membrane were mechanically removed, and the cells remaining on the underside of the membrane were stained with crystal violet (0.5%; Sigma). Cells were then carefully rinsed and the dye fixed to the cells was quantified with a microplate reader ([…]) after its solubilization with a solution of 50% citric acid (0.1M) in water and 50% ethanol.
# [6] = tested on: bFGF-stimulated blood vessel formation in Matrigel; assay: Matrigel in vivo angiogenesis assay; set-up: species or system C57B1/6 mice; settings: intra-peritoneal daily 10 days
# Procedure: The Matrigel™ in vivo assay was performed to determine the ability of test samples to inhibit blood vessel formation (antiangiogenic activity) and to establish their bioavailability in vivo.
# Briefly, liquid Matrigel™ (Becton Dickinson, Bedford, Mass.) was maintained at 4° C. and mixed thoroughly for at least 3 hours with 1,500 ng/ml basic fibroblast growth factor (bFGF) (R&D Systems, Minneapolis, Minn.) used as the primary angiogenic stimulus. The mixture (0.5 ml) was injected subcutaneously into the ventral midline of C57B1/6 mice, and treatment with different test samples or saline solution was initiated the same day. Additional animals were also injected with Matrigel™ containing no bFGF to serve as baseline controls. The animals were treated daily for a 10 day period (intra-peritonealy, 0.2 ml of each dose). At day 11, animals were injected with FITC-dextran 20 min prior to euthanizing treated mice. Matrigel™ gels were removed along with underlying peritoneum and prepared for FITC-dextran detection by fluorimetry. The concentration of FITC-dextran in the gels was calculated from a known concentration of FITC-dextran using a standard curve. The FITC-dextran content of the gels from compound-treated animals and controls was expressed as a percent of the positive bFGF-treated controls after the baseline control of FITC-dextran levels were subtracted from all groups.
# [7] = 2.5 mM free (not complexed) ligand
molecule,measurement,setting,value
L-Glu:Cu:L-Thr [Compound 27],EC50,[1],0.4 mM
"CC(C)C(N)C(=O)[O-].CC(C)C(N)C(=O)[O-].[Cu+2] [Compound 4, L-Val:Cu:L-Val]",Affinity of the AA with Cooper,[2],15.2
same,EVT (% of inhibition),[3],+ (+ between 25-50% of inhibition)
same,EC50,[1],0.35 mM
Gly:Cu:L-Asp [Compound 22],EC50,[1],0.41 mM
"N[C@@H](Cc1c[nH]cn1)C(=O)O [Free His, histidine, reference compound]",Tubulogenesis,Endothelial cells [4]; [7],0
D-Glu:Cu:D-GIu [Compound 15],Endothelial cell proliferation activity (in words),[1],active
same,EC50,[1],0.35 mM
"NCC(=O)[O-].NCC(=O)[O-].[Cu+2] [Compound 1, Gly:Cu:GIy]",Affinity of the AA with Cooper,[2],16.0
same,EVT (% of inhibition),[3],++ (++ more than 50% of inhibition)
same,EC50,[1],0.27 mM
"[Cl-].[Cl-].[Co+2] [Co++, reference compound]",EC50,[1],0.27 mM
"O=C([O-])[C@@H]1CCCN1.O=C([O-])[C@@H]1CCCN1.[Cu+2] [Compound 28, L-Pro:Cu:L-Pro]",Affinity of the AA with Cooper,[2],17.6
same,Endothelial cell proliferation activity (in words),[1],active complex
same,EC50,[1],0.28 mM
Gly:Cu:L-Thr [Compound 23],EC50,[1],0.48 mM
"CC[C@H](C)[C@H](N)C(=O)[O-].CC[C@H](C)[C@H](N)C(=O)[O-].[Cu+2] [Compound 12, L-Ile:Cu:L-IIe]",Affinity of the AA with Cooper,[2],16.6
same,EC50,[1],0.48 mM
"N[C@@H](CO)C(=O)[O-].N[C@@H](CO)C(=O)[O-].[Cu+2] [Compound 3, L-Ser:Cu:L-Ser]",Affinity of the AA with Cooper,[2],15.4
same,EVT (% of inhibition),[3],0 (0 non-active (less than 25% of inhibition))
same,EVT activity (in words),[3],inactive
same,EC50,[1],0.34 mM
L-Ala:Cu:Gly [Compound 18],EC50,[1],0.29 mM
Gly:Cu:L-Glu [Compound 24],EC50,[1],0.33 mM
"N[C@@H](CC(=O)O)C(=O)O [Free Asp, aspartic acid, reference compound]",Tubulogenesis,Endothelial cells [4]; [7],0
"[Cl][Cu][Cl] [CuCl2, copper chloride, reference compound]",Tubulogenesis activity (in words),Endothelial cells [4],did not show any activity
same,Tubulogenesis,Endothelial cells [4]; 1.25 mM,0
same,Cell migration activity (in words),Endothelial cells [5],did not show any activity
same,Cell Migration (% inhibition),Endothelial cells [5]; 1.25 mM,6%
same,Matrigel in vivo % inhibition,[6]; 7.0 mg/Kg equivalent copper,24.2%
L-Asp-Zn-L-Asp [Compound 32],EC50,[1],0.18 mM
"NC(=O)CC[C@H](N)C(=O)[O-].NC(=O)CC[C@H](N)C(=O)[O-].[Cu+2] [Compound 11, L-Gln:Cu:L-Gln]",Affinity of the AA with Cooper,[2],15.5
same,EVT (% of inhibition),[3],0 (0 non-active (less than 25% of inhibition))
same,EC50,[1],0.76 mM
"[Cl-].[Cl-].[Zn+2] [Zn++, reference compound]",EC50,[1],0.19 mM
"CC(O)C(N)C(=O)[O-].CC(O)C(N)C(=O)[O-].[Cu+2] [Compound 16, D-Thr:Cu:D-Thr]",EVT activity (in words),[3],active
same,Endothelial cell proliferation activity (in words),[1],active
same,EC50,[1],0.3 mM
"C[C@H](N)C(=O)O.N[C@@H](CCC(=O)[O-])C(=O)[O-].[Cu+2] [Compound 20, L-Ala:Cu:L-Glu]",EC50,[1],0.28 mM
"C[C@H](N)C(=O)[O-].C[C@H](N)C(=O)[O-].[Cu+2] [Compound 2, L-Ala:Cu:L-Ala]",Affinity of the AA with Cooper,[2],15.9
same,EVT (% of inhibition),[3],++ (++ more than 50% of inhibition)
same,EC50,[1],0.28 mM
L-AIa:Cu:L-Asp [Compound 21],EC50,[1],0.32 mM
L-Asp:Cu:L-Glu [Compound 26],EC50,[1],0.25 mM
L-Asp-Co-L-Asp [Compound 30],EC50,[1],0.27 mM
L-Ala:Cu:L-Thr [Compound 19],EC50,[1],0.36 mM
"CC(N)C(=O)[O-].CC(N)C(=O)[O-].[Cu+2] [Compound 13, D-Ala:Cu:D-Ala]",Endothelial cell proliferation activity (in words),[1],active
same,EC50,[1],0.44 mM
L-Glu:Cu:L-Glu [Compound 7],EVT (% of inhibition),[3],++ (++ more than 50% of inhibition)
same,EC50,[1],0.35 mM
same,Matrigel in vivo % inhibition,[6]; 1.4 mg/Kg equivalent copper,42.6%
same,Matrigel in vivo % inhibition,[6]; 7.0 mg/Kg equivalent copper,71.2%
"C[C@@H](O)[C@H](N)C(=O)O [Free Thr, threonine, reference compound]",Tubulogenesis,Endothelial cells [4]; [7],0
"N=C(N)NCCC[C@H](N)C(=O)[O-].N=C(N)NCCC[C@H](N)C(=O)[O-].[Cu+2] [Compound 8, L-Arg:Cu:L-Arg]",Affinity of the AA with Cooper,[2],14.9
same,EVT (% of inhibition),[3],+ (+ between 25-50% of inhibition)
same,EC50,[1],0.32 mM
"C[C@@H](O)[C@H](N)C(=O)[O-].N[C@@H](CC(=O)O)C(=O)[O-].[Cu+2] [Compound 25, L-Asp:Cu:L-Thr]",EC50,[1],0.29 mM
"NCCCC[C@H](N)C(=O)[O-].NCCCC[C@H](N)C(=O)[O-].[Cu+2] [Compound 9, L-Lys:Cu:L-Lys]",Affinity of the AA with Cooper,[2],14.4
same,EVT (% of inhibition),[3],++ (++ more than 50% of inhibition)
same,EC50,[1],0.35 mM
"N[C@H](Cc1c[nH]cn1)C(=O)[O-].N[C@H](Cc1c[nH]cn1)C(=O)[O-].[Cu+2] [Compound 17, D-His:Cu:D-His]",EVT activity (in words),[3],inactive
same,Endothelial cell proliferation activity (in words),[1],inactive
D-Asp:Cu:D-Asp [Compound 14],Endothelial cell proliferation activity (in words),[1],active
same,EC50,[1],0.37 mM
(Creatine)2-Cu [Compound 34],Endothelial cell proliferation activity (in words),[1],excellent activity
same,EC50,[1],0.28 mM
